Measured values taken from patent US4837226A, “Polycyclic amine derivatives useful as cerebrovascular agents” (Warner-Lambert Company, priority 1988, dated 1989).

Experiments:
[1] = tested on: cultured rat cortical neurons; assay: Inhibition of glutamate stimulated [45Ca] influx (GCI) into cultured rat cortical neurons; format: cell-based; settings: for IC50: Cortical neurone, cultured rat cortical neurons, glutamate stimulated; for inhibition of glutamate stimulated influx of calcium (in words): conclusion from Table III
Excerpt: (§1) The ability of the compounds of the instant invention to inhibit the glutamate and hypoxia stimulated influx of calcium into cultured rat cortical neurons is shown in Table III and Table IV respectively. The methodology for determining the ability of the compounds of the instant invention to inhibit the glutamate stimulated calcium influx (GCI) into cultured rat cortical neurons is to be found in: A. W. Probert and F. W. Marcoux, Soc. Neurosci. Abstr., 13, Part II, 754, (1987). Using a similar culture system, the ability of the compounds of the instant invention to inhibit the hypoxia stimulated influx of calcium (HCI) was determined by incubating cultured cells in an atmosphere of nitrogen (95%) and CO2 (5%) at 37° C. for a period of 4 hours. Calcium influx was determined by subtraction of the stimulated influx in the presence of tetrodotoxin (3 μM) and magnesium (10 mM) from that found in the absence (control) and in the presence of the test substance.

[2] = target: phencyclidene (PCP) receptors; assay: [3H]TCP receptor binding (RBS1), rat brain cortex membranes; settings: for IC50: [3H]TCP, rat brain cortex membranes, read-out: Inhibition of [^3 H]TCP Receptor Binding, RBS1 IC50; for inhibition of [^3 H]TCP receptor binding (in words): conclusion from Table II; for potency compared with TCP and MK-801 (in words): comparison from Table II
Description: Tritiated TCP binding, designated RBS1, was carried out essentially as described in J. Pharmacol. Exp. Ther., 238, 739-748 (1986).

[3] = tested on: cultured rat cortical neurons; assay: Inhibition of hypoxia induced [45Ca] influx (HCI) into cultured rat cortical neurons; format: cell-based; settings: for IC50: Cortical neurone, cultured rat cortical neurons, 95% N2/5% CO2, 37° C., 4 hours; for inhibition of hypoxia induced calcium influx (in words): conclusion from Table IV
Excerpt: as §1

Question: With `CNC12CC(C)CCC1Cc1ccccc12` (centres unmarked) [Example 12, 1,2,3,4,9,9a-hexahydro-3-methyl-N-methyl-(4aH)-fluoren-4a-amine] as the molecule, how does the IC50 [1] read?
Answer: The IC50 was 1900 nM.

Question: And the “inhibition of glutamate stimulated influx of calcium (in words)” value (“inhibition … of calcium (in words)” for short) [1]?
Answer: Its value is “inhibit the glutamate stimulated influx of calcium”.

Question: And the IC50 [2]?
Answer: The IC50 was 95 nM.

Question: And the “inhibition of [^3 H]TCP receptor binding (in words)” value [2]?
Answer: The value was “potent inhibitors”.

Question: And the IC50 [3]?
Answer: Its IC50 is 95 nM.

Question: And the “inhibition of hypoxia induced calcium influx (in words)” value [3]?
Answer: The value was “potent inhibitors”.

Question: For `CCNC12CCCCC1Oc1ccccc12` (centres unmarked) [Example 27, N-ethyl-6,7,8,9-tetrahydro-9a(5aH)-dibenzofuranamine], which IC50 [1] is on record?
Answer: Its IC50 is 1800 nM.

Question: What about the “inhibition … of calcium (in words)” value [1] of the same molecule?
Answer: Its value is “inhibit the glutamate stimulated influx of calcium”.

Question: What about the IC50 [2] of the same molecule?
Answer: The IC50 was 141 nM.

Question: What about the “inhibition of [^3 H]TCP receptor binding (in words)” value [2] of the same molecule?
Answer: Its value is “potent inhibitors”.

Question: What about the IC50 [3] of the same molecule?
Answer: The IC50 was 124 nM.

Question: And the “inhibition of hypoxia induced calcium influx (in words)” value [3]?
Answer: Its value is “potent inhibitors”.

Question: Which IC50 [1] does the source give for `C[C@]12N[C@H](Cc3ccccc31)c1ccccc12` [MK-801, reference compound] here?
Answer: The IC50 was 51 nM.

Question: What about the IC50 [3] of the same molecule?
Answer: Its IC50 is 34 nM.

Question: Which results are given for `CNC12CCCCC1Sc1ccccc12` (centres unmarked) [Example 30, 6,7,8,9-tetrahydro-N-methyl-9a(5aH)-dibenzothiophenamine]?
Answer: IC50 [1]: 260 nM; inhibition of glutamate stimulated influx of calcium (in words) [1]: inhibit the glutamate stimulated influx of calcium; IC50 [2]: 10 nM; potency compared with TCP and MK-801 (in words) [2]: potency comparable to both TCP and MK-801; inhibition of [^3 H]TCP receptor binding (in words) [2]: potent inhibitors; IC50 [3]: 200 nM; inhibition of hypoxia induced calcium influx (in words) [3]: potent inhibitors

Question: Which IC50 [1] does the source give for `COCCCNC12CCCCC1Cc1ccccc12` (centres unmarked) [Example 8, 1,2,3,4,9,9a-hexahydro-N-(3-methoxypropyl)-4aH-fluoren-4a-amine] here?
Answer: Its IC50 is 1900 nM.

Question: What about the “inhibition … of calcium (in words)” value [1] of the same molecule?
Answer: Its value is “inhibit the glutamate stimulated influx of calcium”.

Question: And the IC50 [2]?
Answer: Its IC50 is 102 nM.

Question: What about the “inhibition of [^3 H]TCP receptor binding (in words)” value [2] of the same molecule?
Answer: The value was “potent inhibitors”.

Question: What about the IC50 [3] of the same molecule?
Answer: The IC50 was 43 nM.

Question: And the “inhibition of hypoxia induced calcium influx (in words)” value [3]?
Answer: The value was “potent inhibitors”.

Question: Which results are given for `c1ccc(C2(N3CCCCC3)CCCCC2)cc1` [PCP, phencyclidene, reference compound]?
Answer: IC50 [1]: 160 nM; IC50 [2]: 40 nM; IC50 [3]: 45 nM

Question: What does the source list for `CNC1(c2ccccc2Cl)CCCCC1=O` (centres unmarked) [ketamine, reference compound]?
Answer: IC50 [1]: 5500 nM; IC50 [3]: 1900 nM

Question: For `CNC12CCCCC1Cc1ccccc12` (centres unmarked) [Example 2, 1,2,3,4,9,9a-hexahydro-N-methyl-4aH-fluoren-4a-amine], which IC50 [1] is on record?
Answer: Its IC50 is 304 nM.

Question: And the “inhibition … of calcium (in words)” value [1]?
Answer: Its value is “inhibit the glutamate stimulated influx of calcium”.

Question: What about the IC50 [2] of the same molecule?
Answer: Its IC50 is 15 nM.

Question: And the “potency compared with TCP and MK-801 (in words)” value [2]?
Answer: The value was “potency comparable to both TCP and MK-801”.

Question: And the “inhibition of [^3 H]TCP receptor binding (in words)” value [2]?
Answer: The value was “potent inhibitors”.

Question: What about the IC50 [3] of the same molecule?
Answer: The IC50 was 5 nM.

Question: What about the “inhibition of hypoxia induced calcium influx (in words)” value [3] of the same molecule?
Answer: Its value is “potent inhibitors”.

Question: What does the source list for `NC12CCCCC1Cc1ccccc12` (centres unmarked) [Example 1, 1,2,3,4,9,9a-hexahydro-4aH-fluoren-4a-amine]?
Answer: IC50 [2]: 27 nM; potency compared with TCP and MK-801 (in words) [2]: potency comparable to both TCP and MK-801; inhibition of [^3 H]TCP receptor binding (in words) [2]: potent inhibitors; IC50 [3]: 167 nM; inhibition of hypoxia induced calcium influx (in words) [3]: potent inhibitors
